In paper PMC10102027, “Helquat dyes targeting G-quadruplexes as a new class of anti-HIV-1 inhibitors” (Scientific Reports, 2023):

Key:
Format in all cases: cell-based
[1] = tested on: NL4-3 HIV-1; test: Modified time-of-addition assay; details: 10 μM, MT-4 cells, RT activity 31 h post-infection; for activity by time of addition: added 2-24 h post-infection
Experimental: There are indications that G4s in the HIV-1 promoter might play roles in both RNA and DNA forms. G4s present in the LTR region of HIV-1 genomic RNA could influence reverse transcription. By contrast, G4s in the promoter region of the integrated HIV-1 provirus might regulate the transcription of viral genome and of viral mRNAs and thus the expression of viral proteins and the production of new virions - both the later stages of the HIV-1 life cycle. A modified time-of-addition assay was performed with an emphasis on the later stages of the HIV-1 life cycle, such as reverse transcription, integration and provirus expression. The tested compounds were added at several time points, but the initial time point was 2 h post-infection to eliminate their virucidal/adsorption/entry effects. Several inhibitors of the individual steps of the HIV-1 life cycle were used as controls to resolve the post-entry steps of the HIV-1 life cycle. MT-4 cells were infected with NL4-3 HIV-1 and the infection was allowed to proceed for 1 h. Subsequently, the unbound virions were washed out, and the cells were resuspended in fresh media. The compounds were first added 2 h after the infection. The culture media were harvested 31 h later and the number of released virions was monitored through the activity of reverse transcriptase in the culture media (Fig. 4).
MT-4 cells were infected with NL4-3 HIV-1 at a MOI of 1. After 1 h, the cells were washed, seeded (100,000 cells/well) and incubated at 37 °C. […] HIV-1 production was determined 31 h post-infection by measuring RT activity in the supernatant.
(§1) RT assay. The reverse transcriptase (RT) activity in a cell-free supernatant was assessed by an α-32P RT assay. Briefly, the RT activity in the culture medium, which corresponded to the amount of HIV-1, was used to produce a DNA copy of an RNA template by extending a complementary oligo dT DNA primer with radiolabelled nucleotides. A reaction mixture containing 50 mM Tris-HCl pH 7.8, 75 mM KCl, 2 mM DTT, 5 mM MgCl2 and 0.5% NP-40 (all Sigma-Aldrich), 5 µg per ml of poly (rA)-poly (dT) (The Midlan Certified Reagent Company) with 1 µl 10-mCi/ml [α-32P]dTTP (American Radiolabeled Chemicals) per ml, and the tested sample was incubated at 37°C for two hours, after which 10 µl were spotted on DEAE blotting paper (PerkinElmer) and air-dried. After five washes with SSC buffer (0.15 M NaCl, 0.015 M sodium citrate) and three additional washes with 85% ethanol, the blotting paper was exposed to Phosphoscreen overnight, which was scanned on a Typhoon 9410 Phosphorimager instrument (GE Healthcare). The intensity of the dots was analysed by the ImageQuant software (GE Healthcare).

[2] = tested on: HIV-1; test: Replication assay (RT activity in supernatant); details: 10 µM, compound added 1 h after infection of MT-4 cells, RT activity 5 days after infection
Experimental: To address virion binding and entry in a competitive setting, we performed an adsorption assay where test compounds and virions were added to MT-4 cells simultaneously and were washed out after 2 h of incubation. In parallel, we performed a replication assay where MT-4 cells were infected with HIV-1 and the tested compounds were added 1 h later. In both cases, the infection was evaluated by measuring reverse transcriptase activity in a cell-free supernatant 5 days after the infection (Fig. 3). As controls, PBS (phosphate-buffered saline) and inhibitors of different HIV-1 life-cycle steps were used: AMD (AMD3100), an inhibitor of gp120 attachment to CXCR4 receptors of the target cell, thus preventing HIV-1 adsorption and entry; AZT (azidothymidine), an inhibitor of reverse transcriptase; and RAL (raltegravir), an integrase inhibitor.
MT-4 cells were seeded in 80 µl of the Roswell Park Memorial Institute (RPMI) medium in the amount of 2 × 10^5 cells per well of a 96-well plate, and 10 µl of the virus stock were immediately added with the final multiplicity of infection (MOI) of 0.05. For a replication assay, the infected cells were incubated at 37 °C for 1 h before the addition of compounds being tested (10 µM final concentration) and subsequently cultivated at 37 °C for another 5 days. For an adsorption test, by contrast, the compounds (10 µM final concentration) were added simultaneously with the virus, and after 2 h of incubation, the cells were washed three times with PBS to remove the compounds and unbound virions; after the addition of 100 µl of the RPMI medium, the cells were cultivated at 37 °C for 5 days. Five days post-infection, aliquots of virus-containing cell-free supernatants were harvested and analysed by reverse transcriptase (RT) assay (described in the Supplementary Information). The experiments were performed as biological replicates where the sample size for each condition was n = 3.
as §1

[3] = in vitro; details: human
Excerpt: Based on a facile [2 + 2 + 2]‐cycloisomerization strategy, a robust three‐step synthetic entry into a novel family of helical extended diquats (helquats) was developed. After a straightforward Knoevenagel condensation of the respective helquat parent with different aldehydes (Fig. 2A), more than 500 helquat-based compounds were synthesized and screened for anti-HIV-1 activity in an assay based on the inhibition of the virus-induced cytopathic effect in MT-4 cells, evaluated after 5 days post-infection by an XTT assay. In parallel with the screening, the XTT assay was also used to determine the cytotoxicity of all compounds (Fig. 2B; for more information on the synthesis and characterization of the compounds, see the Supplementary Information). […]
XTT screening. MT-4 cells were seeded in 80 µl of the RPMI without Phenol Red in the amount of 3x10^4 cells per well of a 96-well plate. 10 µl of tested compounds (500 µM at 5% DMSO) or controls (5% DMSO at PBS, AZT 1mM, SQV 100 µM) were added to the cells; after one-hour incubation at 37 °C, HIV-1 (NL4-3 strain) was added with MOI = 0.05 and the infected cells were cultivated for five days.
The viability of the cells was measured by the XTT cell viability and proliferation assay. Briefly, 50 µl of the XTT solution with the addition of PMS (both VWR) was added to the cultivation media and incubated in a humidified incubator maintained at 37 °C with 5% CO2 for four hours, after which absorbance at 560 nm was measured on a VICTOR plate reader (PerkinElmer).
The cytotoxicity of the tested compounds was evaluated separately without virus addition and analysed by the same assay.
For compounds selected as hits in the initial screening, the effective concentration that inhibits 50% of the viral activity (EC50) and the cytotoxic concentration that reduces the MT -4 cell viability by 50% (CC50) were determined. Viral activity was evaluated after five days as an HIV-1-induced cytopathic effect quantified by the XTT assay. Selected hits were tested at two-fold serial dilutions from 50 µM concentration, and the drug concentrations required to reduce the viral cytopathic effect by 50% (EC 50) as well as the drug concentrations that reduced MT-4 cell viability by 50% (CC50) were calculated by nonlinear regression using GraphPad Prism v.8.0.0 (GraphPad Software).

| SMILES | latest time of administration post-infection with retained antiviral activity [1] | activity by time of addition [1] | effect on viral replication [2] | CC50 at 5 days [3] [µM] |
| --- | --- | --- | --- | --- |
| C(=C\c1cc(/C=C/c2ccc3c(c2)CCO3)[n+]2c(c1)-c1c(ccc3c1-c1cccc[n+]1CCC3)CCC2)/c1ccc2c(c1)CCO2 [Compound 14] | up to 8 h | preserved their activity at later time points | significantly impairing viral replication | > 50 |
| COc1ccc2ccccc2c1/C=C/c1cc[n+]2c(c1)-c1c(c(C)c(C)c3c1-c1cc(/C=C/c4c(OC)ccc5ccccc45)cc[n+]1CC3)CC2 [Compound 15] | ≤ 5 h | mainly manifested when these compounds are administered before or early during reverse transcription | significantly impairing viral replication | > 50 |
| Cn1cc(/C=C/c2cc(/C=C/c3cn(C)c4ccccc34)[n+]3c(c2)-c2c(ccc4c2-c2cccc[n+]2CCC4)CCC3)c2ccccc21 [Compound 12] | up to 8 h | preserved their activity at later time points | significantly impairing viral replication | > 50 |
